Test results as given in patent US10150757B2, “Quinazolinone derivatives as PARP inhibitors” (Janssen Pharmaceutica NV, priority 2004, dated 2018).

SMILES | melting point [°C]
O=c1[nH]c(NCCN2CCN(c3n[nH]c4ccccc34)CC2)nc2ccc(Cl)cc12 [Compound 1] | 186
O=c1[nH]c(NCCCN2CCC(O)(c3ccc(Cl)cc3)CC2)nc2ccccc12 [Compound 2] | 178.4
